Source: patent US10969389B2, “Method to monitor and quantify interphase nuclear envelope rupture events” (INSTITUT CURIE, priority 2016, dated 2021)

Tested on: RPE1 cells
Assay: Cell death after passing a constriction in micro-channels, with DNA repair inhibited by ATMi
Assay type: cell-based
Settings: ATMi 10 μM
Procedure: Micro-channels were prepared as previously described (Heuzé M L et al, 2011, 769, pp. 415-434). Briefly, polydimethylsiloxane (PDMS) (GE Silicones) was used to prepare 7 μm wide and 5 μm high micro-channels with constrictions of varying lengths and widths from a self-made mold. For HeLa cells, larger channels of 12 μm width and 5 μm height were used because of their larger nuclei. Channels with constrictions were incubated with 15 μg/mL of fibronectin for 30 min then washed with PBS at least 3 times and finally incubated with medium (containing drugs if necessary) for at least 5 hours before adding cells. Not that the height inside constriction varied depending on the width: height was 2 μm for 1.5 μm wide constrictions, 3.5 μm for 2 μm wide constrictions, 4 μm for 3 μm and 4 μm wide constrictions, and 5 μm for 5 μm wide constrictions.
siRNA 5′-AAAGCAUGGACGAUCAGGAAG-3′ (SEQ ID NO: 6) was used to deplete CHMP3 (Jimenez Science 2014), SMARTpool for SUN1 and SUN2 (Dharmacon, GE LifeSciences), both 5′-GGUGGUGACGAUCUGGGCU-3′ (SEQ ID NO: 7); and 5′-[…]-3′(SEQ ID NO: 8) to target LMNA. Non-targeting siRNA (Dharmacon, GE Life Technologies) was used as the control. siRNA was transfected with Lipofectamine RNAiMAX (Invitrogen). Cells were transfected with 120 nM siRNA 48 h and again 24 h before the experiment.
For immunofluorescence, secondary antibodies anti-mouse-Alexa488 and anti-Goat-Alexa488 (Jackson ImmunoResearch Laboratories) were used. ATMi (KU-55933, TOCRIS) was used at 10 μM to inhibit DNA repair.
The inventors hypothesized that efficient resealing was responsible for the high survival rate of cells passing through constrictions. The inventors thus quantified the occurrence of cell death after passage through a single constriction in RPE1 cells either depleted for LMNA/C, or for CHMP3. As expected from previous work by others, the inventors found a dramatic increase in death in LMNA/C-depleted cells (FIG. 4A), even inside straight channels, but stronger when cells were passing constrictions where the NE ruptured for longer periods of time.
The inventors therefore hypothesized that the cell death observed upon migration through constrictions in LMNA/C-depleted cells could be caused by a defect in DNA repair combined with a high degree of DNA damage due to prolonged nuclear envelope opening. To test this hypothesis, the inventors inhibited DNA repair using an ATM inhibitor (ATMi, Fig S4E; 22), in control cells and in cells depleted for LMNA/C, or CHMP3.

## O=c1cc(-c2cccc3c2Sc2ccccc2S3)oc(N2CCOCC2)c1 [ATMi, KU-55933]
CHMP3-depleted RPE1 cells migrating through constrictions
  level of cell death: about 30%
CHMP3-depleted RPE1 cells that did not migrate through constrictions
  level of cell death: no effect
LMNA/C-depleted RPE1 cells
  level of cell death: further increased
Control RPE1 cells
  level of cell death: no effect
